Test results from US5328906A, “0-(3-amino-2-hydroxypropyl)-hydroximic acid halides and process for preparing the same” (Biorex Kutato-Fejleszto KFT, priority 1993, dated 1994).

Columns and labels:
diabetic aorta = assay: beta-blocking effect on diabetic (Streptosotocin treated) rat aorta spiral and/or ring preparate, noradrenalin contractions; conditions: aorta spiral of diabetic animals treated with Streptosotocin
Description: (§1) The beta-blocking effect of the compounds according to the present invention was tested on rat aorta spiral and/or ring preparate <J. Pharmacol. Exp. Therap. 158, 531 (1967)>. The experimental diabetes was induced with Streptosotocin <2-(3-nitroso-3-methylureido)-2-deoxy-D-glucose>. The reaction was evaluated as positive when the alpha stimulating effect of the noradrenalin on the control preparate, i.e. that having not been treated with Streptosotocin, was not influenced, but protected on the diabetic aorta. In the tests carried out with the compounds according to the present invention a general selective effect occurred, manifesting in case of diabetic tests in a strong, in case of normal tests in the absence of or in the presence of only a slight beta-blocking effect.
Experiments were carried out to study whether on the aorta spiral preparates of diabetic animals treated with Streptosotocin the Inderal protects the contractions induced by noradrenalin. As control, animals previously not treated with Streptosotocin were used. The results obtained essentially conformed to those known from the literature <Amer. […] (Endocrinology. Vol. 93, No. 3, September 1973). […]

[1] = test system: control preparate (rat aorta); assay: beta-blocking effect on control (not Streptosotocin treated) rat aorta spiral and/or ring preparate, noradrenalin contractions; conditions: aorta spiral of animals not treated with Streptosotocin (normal tests)
Description: as §1
Experiments were carried out to study whether on the aorta spiral preparates of diabetic animals treated with Streptosotocin the Inderal protects the contractions induced by noradrenalin. As control, animals previously not treated with Streptosotocin were used. The results obtained essentially conformed to those known from the literature <Amer. […] (Endocrinology. Vol. 93, No. 3, September 1973).

[2] = acute toxicity LD50 on Wistar rats; conditions: rat, in vivo, iv

Row | SMILES | protection against the alpha stimulating effect (contractions) of noradrenalin (diabetic aorta) | protection against the alpha stimulating effect (contractions) of noradrenalin [1] | LD50 [2]
1 | CC(C)NCC(O)COc1cccc2ccccc12 (stereo not drawn) [Inderal, 1-isopropylamino-3-(naphtyloxy)-propan-2-ol] | the alpha stimulating effect of noradrenalin was protected by the Inderal in diabetic tests | not in the normal tests | –
2 | OC(CON=C(Cl)c1cccnc1)CN1CCCCC1 (stereo not drawn) [Example 5, O-(3-piperidino-2-hydroxy-propyl)-3-piridyl-hydroximic acid chloride] | – | – | 110 mg/kg
